# How the values were obtained:
# [1] = tested on: MV4-11 cells; experiment: Annexin V Staining (apoptosis); type: cell-based, human; conditions: MV4-11, 48 hours, fixed ratio 4:1 Tipifarnib and Compound A
# Description: The ultimate goal of treatment for FLT3 related disorders is to kill the disease causative cells and to cause regression of disease. […] Annexin V binding to phosphotidyl serine that has translocated from the inner leaflet of the plasma membrane to the outer leaflet of the plasma membrane and is a well established way to measure apoptosis of cells. See van Engeland M., L. J. Nieland, et al. (1998) “Annexin V-affinity assay: a review on an apoptosis detection system based on phosphatidylserine exposure.” Cytometry. 31(1):1-9.
# After the compound incubations, treated cells were harvested and stained with Annexin V-PE and 7-AAD using the Guava Nexin apoptosis kit according to the protocol in the Biological Activity Measurements section hereafter. Annexin V staining peaks at 60% because cells late in apoptosis begin to fall apart and are considered debris. […] Statistical analysis using the above described method of Chou and Talalay was also performed to determine the synergy of the combination. […] The magnitude of the synergistic induction of apoptosis of MV4-11 cells by the combination of an FTI and a FLT3 inhibitor could not be predicted by those skilled in the art. […]
# Annexin V Staining. […] All annexin positive cells were considered apoptotic and percent Annexin positive cells was calculated.
# [2] = tested on: cells that depend on FLT3 for growth; experiment: Standard 72-hour cell proliferation assay, FLT3 dependent cell lines taken together; type: cell-based; conditions: 72-hour proliferation; depending on the cell type
# Protocol: The cell lines that were tested included those that are dependent on FLT3ITD mutant activity for growth (MV4-11 and Baf3-FLT3ITD), FLT3 wt activity for growth (Baf3FLT3) and those that grow independent of FLT3 activity (THP-1). […] Baf3-FLT3 and Baf3-FLT3ITD cell lines were obtained from Dr. Michael Henrich and the Oregon Health Sciences University. The Baf3 FLT3 cell lines were created by stable transfection of parental Baf3 cells (a murine B cell lymphoma line dependent on the cytokine IL-3 for growth) with either wild-type FLT3 or FLT3 containing the ITD insertion in the juxatamembrane domain of the receptor resulting in its constitutive activation. Cells were selected for their ability to grow in the absence of IL-3 and in either the presence of FLT3 ligand (Baf3-FLT3) or independent of any growth factor (Baf3-ITD). […]
# Dose responses for the individual compounds alone were determined for each cell line using a standard 72-hour cell proliferation assay (see FIGS. 6.1-6.8). […]
# Cell proliferation assay for MV4-11, Baf3-ITD, Baf3-FLT3 and THP-1 cells. […] Total cell growth is quantified as the difference in luminescent counts (relative light units, RLU) of cell number at Day 0 compared to total cell number at Day 3 (72 hours of growth and/or compound treatment). One hundred percent inhibition of growth is defined as an RLU equivalent to the Day 0 reading. […]
smiles,measurement,setting,value
"Cn1cncc1C(N)(c1ccc(Cl)cc1)c1ccc2c(c1)c(-c1cccc(Cl)c1)cc(=O)n2C (single isomer, unassigned; (+)) [Tipifarnib, (+)-6-[amino(4-chlorophenyl)(1-methyl-1H-imidazol-5-yl)methyl]-4-(3-chlorophenyl)-1-methyl-2(1H)-quinolinone]",shift of EC50 for the induction of annexin V staining in combination,[1],more than eight-fold
same,single agent potency for inhibition of proliferation,[2],high nanomolar to high picomolar range

# From US20060281700A1, “SYNERGISTIC MODULATION OF FLT3 KINASE USING AMINOPYRIMIDINES KINASE MODULATORS” (priority 2005, published 2006)
